# Measurements reported in PubChem BioAssay (NCI).
#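 Grown in 96-well plates, cells were treated for 48 hours with each compound at five concentrations. Insufficient inhibition: endpoint recorded as highest concentration tested. TGI is the concentration that stops growth completely.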
# How the values were obtained:
# Assay in all cases: DTP human tumour cell line panel, 48 h
# IGROV1 ovarian = tested on: IGROV1 ovarian
# CAKI-1 renal = tested on: CAKI-1 renal
# M14 melanoma = tested on: M14 melanoma
# SK-MEL-28 melanoma = tested on: SK-MEL-28 melanoma
# UACC-62 melanoma = tested on: UACC-62 melanoma
# SK-MEL-5 melanoma = tested on: SK-MEL-5 melanoma
# HL-60(TB) leukemia = tested on: HL-60(TB) leukemia
# HCT-116 colon = tested on: HCT-116 colon
# A549 NSCLC = tested on: A549 NSCLC
# SNB-75 CNS = tested on: SNB-75 CNS
# MALME-3M melanoma = tested on: MALME-3M melanoma
# NCI-H522 lung = tested on: NCI-H522 lung
# KM20L2 colon = tested on: KM20L2 colon
# OVCAR-5 ovarian = tested on: OVCAR-5 ovarian
# SK-OV-3 ovarian = tested on: SK-OV-3 ovarian
# DMS 114 small cell lung = tested on: DMS 114 small cell lung
# U251 CNS = tested on: U251 CNS
# CCRF-CEM leukemia = tested on: CCRF-CEM leukemia
# UO-31 renal = tested on: UO-31 renal
# NCI-H226 lung = tested on: NCI-H226 lung
# SF-268 CNS = tested on: SF-268 CNS
# RPMI-8226 leukemia = tested on: RPMI-8226 leukemia
# COLO 205 colon = tested on: COLO 205 colon
# SW-620 colon = tested on: SW-620 colon
# LXFL 529 NSCLC = tested on: LXFL 529 NSCLC
# K-562 leukemia = tested on: K-562 leukemia
# OVCAR-4 ovarian = tested on: OVCAR-4 ovarian
# TK-10 renal = tested on: TK-10 renal
# SF-295 CNS = tested on: SF-295 CNS
# SN12C renal = tested on: SN12C renal
# RXF 393 renal = tested on: RXF 393 renal
# SK-MEL-2 melanoma = tested on: SK-MEL-2 melanoma
# LOX IMVI melanoma = tested on: LOX IMVI melanoma
# 786-0 renal = tested on: 786-0 renal
# HOP-92 NSCLC = tested on: HOP-92 NSCLC
# HCC-2998 colon = tested on: HCC-2998 colon
# HCT-15 colon = tested on: HCT-15 colon
# OVCAR-3 ovarian = tested on: OVCAR-3 ovarian
# OVCAR-8 ovarian = tested on: OVCAR-8 ovarian
# SR leukemia = tested on: SR leukemia
# DLD-1 colon = tested on: DLD-1 colon
# NCI-H23 lung = tested on: NCI-H23 lung
# KM12 colon = tested on: KM12 colon
# HT29 colon = tested on: HT29 colon
# HOP-62 NSCLC = tested on: HOP-62 NSCLC
# DMS 273 small cell lung = tested on: DMS 273 small cell lung
# SNB-78 CNS = tested on: SNB-78 CNS
# EKVX NSCLC = tested on: EKVX NSCLC
# SF-539 CNS = tested on: SF-539 CNS
# ACHN renal = tested on: ACHN renal
# SNB-19 CNS = tested on: SNB-19 CNS
# NCI-H460 lung = tested on: NCI-H460 lung
# M19-MEL melanoma = tested on: M19-MEL melanoma
# UACC-257 melanoma = tested on: UACC-257 melanoma
# MOLT-4 leukemia = tested on: MOLT-4 leukemia
# HOP-18 NSCLC = tested on: HOP-18 NSCLC
smiles,measurement,setting,value
CC1=COC(=O)c2ccccc2N1,TGI,IGROV1 ovarian,> 100 µM
same,TGI,CAKI-1 renal,> 100 µM
same,TGI,M14 melanoma,> 100 µM
same,TGI,SK-MEL-28 melanoma,> 100 µM
same,TGI,UACC-62 melanoma,> 100 µM
same,TGI,SK-MEL-5 melanoma,> 100 µM
same,TGI,HL-60(TB) leukemia,> 100 µM
same,TGI,HCT-116 colon,> 100 µM
same,TGI,A549 NSCLC,> 100 µM
same,TGI,SNB-75 CNS,> 100 µM
same,TGI,MALME-3M melanoma,> 100 µM
same,TGI,NCI-H522 lung,> 100 µM
same,TGI,KM20L2 colon,> 100 µM
same,TGI,OVCAR-5 ovarian,> 100 µM
same,TGI,SK-OV-3 ovarian,> 100 µM
same,TGI,DMS 114 small cell lung,> 100 µM
same,TGI,U251 CNS,> 100 µM
same,TGI,CCRF-CEM leukemia,> 100 µM
same,TGI,UO-31 renal,> 100 µM
same,TGI,NCI-H226 lung,> 100 µM
same,TGI,SF-268 CNS,> 100 µM
same,TGI,RPMI-8226 leukemia,> 100 µM
same,TGI,COLO 205 colon,> 100 µM
same,TGI,SW-620 colon,> 100 µM
same,TGI,LXFL 529 NSCLC,> 100 µM
same,TGI,K-562 leukemia,> 100 µM
same,TGI,OVCAR-4 ovarian,> 100 µM
same,TGI,TK-10 renal,> 100 µM
same,TGI,SF-295 CNS,> 100 µM
same,TGI,SN12C renal,> 100 µM
same,TGI,RXF 393 renal,> 100 µM
same,TGI,SK-MEL-2 melanoma,> 100 µM
same,TGI,LOX IMVI melanoma,> 100 µM
same,TGI,786-0 renal,> 100 µM
same,TGI,HOP-92 NSCLC,> 100 µM
same,TGI,HCC-2998 colon,> 100 µM
same,TGI,HCT-15 colon,> 100 µM
same,TGI,OVCAR-3 ovarian,> 100 µM
same,TGI,OVCAR-8 ovarian,> 100 µM
same,TGI,SR leukemia,> 100 µM
same,TGI,DLD-1 colon,> 100 µM
same,TGI,NCI-H23 lung,> 100 µM
same,TGI,KM12 colon,> 100 µM
same,TGI,HT29 colon,> 100 µM
same,TGI,HOP-62 NSCLC,> 100 µM
same,TGI,DMS 273 small cell lung,> 100 µM
same,TGI,SNB-78 CNS,> 100 µM
same,TGI,EKVX NSCLC,> 100 µM
same,TGI,SF-539 CNS,> 100 µM
same,TGI,ACHN renal,> 100 µM
same,TGI,SNB-19 CNS,> 100 µM
same,TGI,NCI-H460 lung,> 100 µM
same,TGI,M19-MEL melanoma,> 100 µM
CC(=O)Oc1cc(OC(C)=O)c2c(=O)c3ccccc3n(C)c2c1,TGI,IGROV1 ovarian,68.4 µM
same,TGI,UACC-257 melanoma,84.1 µM
same,TGI,SK-MEL-28 melanoma,59.9 µM
same,TGI,UACC-62 melanoma,> 100 µM
same,TGI,SK-MEL-5 melanoma,29.7 µM
same,TGI,HCT-116 colon,74.7 µM
same,TGI,A549 NSCLC,> 100 µM
same,TGI,MOLT-4 leukemia,> 100 µM
same,TGI,SNB-75 CNS,76.3 µM
same,TGI,MALME-3M melanoma,48.8 µM
same,TGI,NCI-H522 lung,52.8 µM
same,TGI,HOP-18 NSCLC,57.1 µM
same,TGI,SK-OV-3 ovarian,59.8 µM
same,TGI,DMS 114 small cell lung,96.5 µM
same,TGI,UO-31 renal,53.8 µM
same,TGI,NCI-H226 lung,40.5 µM
same,TGI,SF-268 CNS,76.5 µM
same,TGI,LXFL 529 NSCLC,> 100 µM
same,TGI,OVCAR-4 ovarian,> 100 µM
same,TGI,TK-10 renal,> 100 µM
same,TGI,SF-295 CNS,44.2 µM
same,TGI,SN12C renal,88.2 µM
same,TGI,RXF 393 renal,75.2 µM
same,TGI,SK-MEL-2 melanoma,97.1 µM
same,TGI,LOX IMVI melanoma,28.1 µM
same,TGI,HCT-15 colon,> 100 µM
same,TGI,OVCAR-3 ovarian,> 100 µM
same,TGI,OVCAR-8 ovarian,64.4 µM
same,TGI,DLD-1 colon,91.3 µM
same,TGI,NCI-H23 lung,77.6 µM
same,TGI,KM12 colon,> 100 µM
same,TGI,HT29 colon,64.5 µM
same,TGI,DMS 273 small cell lung,> 100 µM
same,TGI,SNB-78 CNS,84.3 µM
same,TGI,SF-539 CNS,42.2 µM
same,TGI,ACHN renal,65.1 µM
same,TGI,SNB-19 CNS,> 100 µM
same,TGI,NCI-H460 lung,67.5 µM
same,TGI,M19-MEL melanoma,52.2 µM
